Converted amounts (≈) assume the structure as drawn. Like-named read-outs stand apart in the source and are kept apart here.
Tests used:
[1] = tested on: C. diff. spore germination; conditions: reported in WO2010/062369, Table 3, cited from earlier work
[2] = tested on: Clostridium difficile (Clostridioides difficile), Human Strain R20291, Ribotype RT027; experiment: MIC on Clostridium difficile human strain R20291, ribotype RT027; assay type: cell-based; conditions: 16 h incubation, OD600
Procedure: Determination of Minimal Inhibitory Concentrations (MICs) of Bile Acid Derivatives on Clostridium difficile (Clostridioides difficile), Human Strain R20291, Ribotype RT027, Reference DSMZ (DSM-27147)
All bacterial culturing steps and MIC experiments were performed under anoxic conditions (95% N2, 5% H2) and 37° C. in an incubator model 2002 that was placed in a Type B vinyl anaerobic chamber, both from Coy Laboratories Products. The strains were maintained as frozen stock cultures in Brain-Heart Infusion broth supplemented with […] and 1% (w/v) L-cysteine (BHIS) containing 40% (v/v) glycerine (Carl Roth GmbH, Cat. #3783.1) at −80° C. Brain-heart infusion broth (Sigma Aldrich, Cat. #53286) with the addition of with 5 g/L yeast extract (Carl Roth GmbH, Cat. #2363.5) was prepared according to the manufacturer's instructions. After heat sterilization, 1 g L-cysteine (Sigma Aldrich, Cat. #C7352) was added that was dissolved in 10 mL of distilled water (H2Odd) and filter sterilized. Medium was placed over night into the anaerobic chamber for degassing. For the MIC-assay cryo-preserved strains were streaked out on BBL™ Columbia CNA Agar with 5% Sheep Blood (BD™, Cat. #221352) and grown for 2-3 d. These plates were kept at rt in the anaerobic chamber for up to two weeks for starting fresh liquid cultures. […]

[3] = biological target: T1, vitamin D receptor (VDR; NR1I1) (Homo sapiens, UniProt P11473); experiment: One-hybrid reporter assay for the vitamin D receptor; assay type: cell-based; conditions: result in words
T1 construct: expressed in transfected cells; host or cells: HEK293
T1 sequence (P11473 88-427): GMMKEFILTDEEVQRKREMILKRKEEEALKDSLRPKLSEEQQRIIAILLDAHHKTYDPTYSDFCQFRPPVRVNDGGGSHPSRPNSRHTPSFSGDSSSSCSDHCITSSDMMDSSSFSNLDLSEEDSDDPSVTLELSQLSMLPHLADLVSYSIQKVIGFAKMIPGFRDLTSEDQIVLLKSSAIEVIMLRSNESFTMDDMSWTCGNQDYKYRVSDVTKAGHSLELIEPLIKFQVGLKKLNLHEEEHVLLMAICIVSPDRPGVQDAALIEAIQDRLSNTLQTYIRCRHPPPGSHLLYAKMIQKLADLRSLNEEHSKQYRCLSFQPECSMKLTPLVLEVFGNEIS
Procedure: The vitamin D receptor (VDR; NR1I1) reporter assay was performed by transient co-transfection of HEK293 cells with pCMV-BD (Stratagene #211342) containing the GAL4 DNA-binding domain fused with the ligand binding domain of VDR (Genbank accession no. NP_000378, aa 88-427), pFR-Luc reporter and pRL-CMV reporter (Promega #E2261) using PEI solution (Sigma Aldrich cat #40872-7) in a 96-well plate. Cells were incubated for 4-6 hours, and then cultured in MEM supplemented with 8.7% FCS, Glutamax, NEAA, sodium pyruvate and Pen/Strep in the presence of test compounds for 16-20 hours. Cells were incubated for 4 to 6 hours in 30 μL/well transfection mix in OPTIMEM and then cultured for further 16 to 20 hours after addition of 120 μL MEM supplemented with 8.7% FCS, Glutamax, NEAA, sodium pyruvate and Pen/Strep in the presence of test compounds. Medium was removed and cells were lysed with 1× Passive Lysis Buffer (Promega). Firefly luciferase buffer was then added and firefly luciferase luminescence was read on BMG LUMIstar OMEGA luminescence plate reader. One second later, renilla luciferase buffer was added and renilla luciferase luminescence was read to evaluate cell viability and to be able to normalize for well to well differences in transfection efficiency.

[4] = tested on: C. diff. strain VPI 10463 (ATCC-43255) infection; experiment: Murine model of Clostridium difficile-associated disease: acute model; assay type: in vivo, C57BL6 female mice
Procedure: Efficacy Evaluation in a Murine Model of Clostridium difficile-Associated Disease: Acute Model
The efficacy of compounds in suppressing C. diff infection was assessed in C57BL6 female mice. Mice were made vulnerable to C. diff. infection by administration of a cocktail of antibiotics (1% glucose, kanamycin (0.5 mg/mL), gentamicin (44 μg/mL), colistin (1062.5 U/mL), metronidazole (269 μg/mL), ciprofloxacin (156 μg/mL), ampicillin (100 μg/mL) and vancomycin (56 μg/mL)) in drinking water for a period of 9 days. 3 days prior to C. diff. infection, mice received a single dose of clindamycin (10 mg/kg) in a volume of 0.5 mL by oral gavage. After this antibiotic pre-treatment, mice received a challenge of approximately 4.5 log 10 viable spores of strain VPI 10463 (ATCC-43255) administered by oral gavage. Test compounds (bile acid) and placebo were administered in the chow or via oral gavage bid from day −2 through day 4 or 10 or 11. Gavage medium was aqueous, PBS-buffered 0.5% hydroxypropyl methylcellulose (HPMC) suspension. Efficacy of test articles was assessed by enumeration of survival of test animals over 12/15 days following C. diff, challenge and by comparison of mortality, disease severity scores and assessment of body weight against placebo treatment.
Results studies 1, 2 and 3 (using compound Example 1, dosed with 100 mg/kg daily dose via food or via gavage bid): […]

[5] = ALT plasma concentration of mice after 5 days administration; assay type: in vivo; conditions: 500 mg/kg for 5 days, mice (FIG. 1a, 1b); result in words
[6] = tested on: C. diff. strain BI1 infection; experiment: Recurrence model hamster of C. diff. infection; assay type: in vivo, male Syrian hamster; conditions: for survivors: repeated experiment (FIG. 5), 100% of vehicle animals died within 13 days
Procedure: The efficacy of compounds in suppressing recurrent C. diff infection was assessed in male Syrian hamster. Hamster were made vulnerable to C. diff. infection by administration 1 day prior to C. diff, infection of a single dose of clindamycin (30 mg/kg) by oral gavage. After this antibiotic pre-treatment, mice received a challenge of approximately 1560 viable spores of strain BI1 administered by oral gavage (day 0). After that hamster received 10 mg/kg vancomycin from day 0 until day 5. Test articles (bile acid) and placebo were administered via oral gavage bid from day 6 through day 15. Efficacy of test articles was assessed by enumeration of survival of test animals over 20 days following C. diff. challenge and by comparison of mortality, disease severity scores and assessment of body weight against placebo treatment.

[7] = tested on: Clostridium difficile (Clostridioides difficile), Mouse Strain VPI 10463 (ATCC 43255); experiment: MIC on Clostridium difficile mouse strain VPI 10463; assay type: cell-based; conditions: ATCC43255, 48 hours, presence/absence of growth, tested 0.015-250 μM
Procedure: Determination of Minimal Inhibitory Concentrations (MICs) of Bile Acid Derivatives on Clostridium difficile (Clostridioides difficile), Mouse Strain VPI 10463 (ATCC 43255)
Concentrations (0.015-250 μM) of test compounds are prepared by serial two-fold dilutions in pre-reduced brain heart infusion (BHI) broth. To each well containing test article, approximately 5×10^5 CFU of bacteria are added and incubated for 48 hours in an anaerobic chamber at 37° C. Following incubation, the MIC of each test article is determined by presence/absence of bacterial growth in each well.

[8] = tested on: C. diff. strain VPI 10463 (ATCC-43255) infection; experiment: Recurrence model mouse of C. diff. infection; assay type: in vivo, C57BL/6 female mice; conditions: for survival of the animals: comparison Example 3 against Example 1 (FIG. 3); for Survived / Total Deaths: Day 5 to Day 11, n 10
Procedure: The efficacy of compounds in suppressing recurrent C. diff. infection was assessed in C57BL/6 female mice. Mice were made vulnerable to C. diff. infection by administration of a cocktail of antibiotics (1% glucose, kanamycin (0.5 mg/mL), gentamicin (44 μg/mL), colistin (1062.5 U/mL), metronidazole (269 μg/mL), ciprofloxacin (156 μg/mL), ampicillin (100 μg/mL) and vancomycin (56 μg/mL)) in drinking water for a period of 9 days. 3 days prior to C. diff. infection, mice received a single dose of clindamycin (10 mg/kg) in a volume of 0.5 mL by oral gavage. After this antibiotic pre-treatment, mice received a challenge of approximately 4.5 log 10 viable spores of strain VPI 10463 (ATCC-43255) administered by oral gavage (day 0). After that mice received 50 mg/kg vancomycin from day 0 until day 4. Test articles (bile acid) and placebo were administered via oral gavage bid from day 5 through day 11. Efficacy of test articles was assessed by enumeration of survival of test animals over 15 days following C. diff, challenge and by comparison of mortality, disease severity scores and assessment of body weight against placebo treatment.

[9] = Study 1, 0.1% in chow, Day −2 to Day 10
[10] = Study 1, 0.1% in chow, Day −2 to Day 10, n 10
[11] = Study 2, 0.1% in chow, Day −2 to Day 10
[12] = Study 2, 0.1% in chow, Day −2 to Day 10, n 10
[13] = Study 3, 0.1% in chow, Day −2 to Day 4
[14] = Study 3, 0.1% in chow, Day −2 to Day 4, n 10
[15] = Study 3, 0.1% in chow, Day −2 to Day 10
[16] = Study 3, as gavage, Day −2 to Day 4
[17] = Study 3, as gavage, Day −2 to Day 4, n 10
[18] = Study 3, as gavage, Day −2 to Day 10
[19] = Study 2 (so in the source), 0.1% in chow, Day −2 to Day 10
[20] = Study 2, as gavage, Day 5 to Day 11

Which “effect on C. diff. spore germination (inhibition of germination)” value [1] does the source give for `CC(=O)O[C@@H]1CC[C@@]2(C)[C@H](CC[C@@H]3[C@@H]2CC[C@]2(C)[C@@H]([C@H](C)CCC(=O)O)CC[C@@H]32)C1` [5β-cholanic acid 3α-ol acetate] here?
Its value is “no effect”.

And the “effect on C. diff. spore germination (inhibition of germination)” value ([1]; listed as 3-acetyl-LCA)?
Its value is “not present”.

Which MIC [2] does the source give for `C[C@H](CCC(=O)O)[C@H]1CC[C@H]2[C@@H]3CC[C@@H]4C[C@@H](O)CC[C@]4(C)[C@H]3CC[C@]12C` [Example 1, Isolithocholic Acid] here?
Its MIC is 16 µM (≈ 6.03 µg/mL).

What about the “Vitamin D agonism” value [3] of the same compound?
Its value is “devoid of this Vitamin D agonism”.

What about the “% Death” value [4, 9] of the same compound?
The value was 0%.

And the “% mouse days with total clinical score >0” value [4, 9]?
Its value is 30%.

What about the “% mouse days with total clinical score >2” value [4, 9] of the same compound?
Its value is 0%.

What about the “Body weight day 12” value [4, 9] of the same compound?
Its value is 19.0.

What about the Survived [4, 10] of the same compound?
The Survived was 10.

What about the “Total Deaths” value [4, 10] of the same compound?
Its value is 0.

What about the “% Death” value [4, 11] of the same compound?
The value was 0%.

What about the “% mouse days with total clinical score >0” value [4, 11] of the same compound?
Its value is 65%.

And the “% mouse days with total clinical score >2” value [4, 11]?
Its value is 0%.

And the “Body weight day 12” value [4, 11]?
The value was 20.0.

What about the Survived [4, 12] of the same compound?
The Survived was 10.

And the “Total Deaths” value [4, 12]?
Its value is 0.

What about the “% Death” value [4, 13] of the same compound?
Its value is 20%.

And the “Body weight day 12” value [4, 13]?
The value was 18.1.

And the Survived [4, 14]?
Its Survived is 8.

And the “Total Deaths” value [4, 14]?
Its value is 2.

What about the “% mouse days with total clinical score >0” value [4, 15] of the same compound?
Its value is 72%.

What about the “% mouse days with total clinical score >2” value [4, 15] of the same compound?
Its value is 15%.

What about the “% Death” value [4, 16] of the same compound?
Its value is 0%.

What about the Body weight day 12 [4, 16] of the same compound?
Its Body weight day 12 is 15.5 g.

What about the Survived [4, 17] of the same compound?
Its Survived is 10.

What about the “Total Deaths” value [4, 17] of the same compound?
Its value is 0.

And the “% mouse days with total clinical score >0” value [4, 18]?
Its value is 30%.

What about the “% mouse days with total clinical score >2” value [4, 18] of the same compound?
The value was 2%.

And the “animals in the treatment groups survived” value ([4]; first study (vehicle group 40% died))?
Its value is 100%.

What about the “animals in the treatment groups survived” value ([4]; second study (vehicle group 30% died)) of the same compound?
The value was 100%.

What about the “animals in the treatment groups survived” value ([4]; third study (vehicle group 80% died)) of the same compound?
The value was 80%.

And the “ALT-elevation (ALT plasma concentration)” value [5]?
The value was “less pronounced”.

And the survivors ([6]; 30 mg/kg)?
Its survivors is 20%.

And the survivors ([6]; 100 mg/kg)?
The survivors was 40%.

What about the animals protected ([6]; dose-dependent manner (FIG. 5)) of the same compound?
The animals protected was 20-40%.

What about the “animals in the treatment group died” value ([6]; first experiment (FIG. 4), vehicle group 20% died, result in words) of the same compound?
The value was “none”.

And the “spores in caecum and colon of surviving animals” value ([6]; result in words)?
The value was “removed all spores from caecum and colon”.

And the MIC [7]?
Its MIC is 15.6 µM (≈ 5.87 µg/mL).

And the “survival of the animals” value ([8]; 100 mg/kg)?
Its value is 30%.

What about the “efficacy (surviving rate), head-to-head comparison of iso-LCA and LCA” value ([8]; FIG. 2, result in words) of the same compound?
The value was “higher surviving rate”.

And the “% Death” value ([8]; Study 1, 0.1% in chow, Day 5 to Day 11)?
The value was 0%.

And the Survived ([8]; Study 1, 0.1% in chow)?
Its Survived is 10.

And the “Total Deaths” value ([8]; Study 1, 0.1% in chow)?
Its value is 0.

And the “Body weight day 12” value [8, 9]?
Its value is 18.4.

And the “% mouse days with total clinical score >0” value [8, 19]?
The value was 30%.

What about the “% mouse days with total clinical score >2” value [8, 19] of the same compound?
The value was 1%.

And the “% Death” value [8, 20]?
Its value is 0%.

And the “% mouse days with total clinical score >0” value [8, 20]?
Its value is 56%.

And the “% mouse days with total clinical score >2” value [8, 20]?
The value was 0%.

What about the Body weight day 12 [8, 20] of the same compound?
The Body weight day 12 was 16.9 g.

And the Survived ([8]; Study 2, as gavage)?
Its Survived is 10.

What about the “Total Deaths” value ([8]; Study 2, as gavage) of the same compound?
The value was 0.

What about the “animals in the treatment groups died” value ([8]; vehicle group 70 to 80% died, result in words) of the same compound?
The value was “none”.

With `[2H]C1([2H])C[C@@]2(C)[C@H](CC[C@@H]3[C@@H]2CC[C@]2(C)[C@@H]([C@H](C)CCC(=O)O)CC[C@@H]32)C([2H])([2H])[C@H]1O` [Example 2, 2,2,4,4-d4-Isolithocholic Acid] as the compound, how does the MIC [7] read?
The MIC was 7.8 to 15.6 µM (≈ 2.97 to 5.94 µg/mL).

Which results are given for `[2H]C1([2H])C[C@@]2(C)[C@H](CC[C@@H]3[C@@H]2CC[C@]2(C)[C@@H]([C@H](C)CCC(=O)O)CC[C@@H]32)C([2H])([2H])C1([2H])O` (stereo partly shown) [Example 3, 2,2,3,4,4-d5-Isolithocholic Acid]?
MIC [7]: 7.8 to 15.6 µM (≈ 2.98 to 5.95 µg/mL); survival of the animals ([8]; 30 mg/kg): 60%

With `[2H][C@]1(O)CC[C@@]2(C)[C@H](CC[C@@H]3[C@@H]2CC[C@]2(C)[C@@H]([C@H](C)CCC(=O)O)CC[C@@H]32)C1` [Example 4, 3-d1-Isolithocholic Acid] as the compound, how does the MIC [7] read?
Its MIC is 15.6 µM (≈ 5.89 µg/mL).

Which results are given for `C[C@H](CCC(=O)O)[C@H]1CC[C@H]2[C@@H]3CC[C@H]4C[C@@H](O)CC[C@]4(C)[C@H]3CC[C@]12C` [Example 5, 3β-Hydroxy-5α-cholan-24-oic Acid]?
MIC [2]: 8 µM (≈ 3.01 µg/mL); MIC [7]: 3.9 µM (≈ 1.47 µg/mL)

Which “ALT-elevation (ALT plasma concentration)” value [5] does the source give for `C[C@H](CCC(=O)O)[C@H]1CC[C@H]2[C@@H]3CC[C@@H]4C[C@H](O)CC[C@]4(C)[C@H]3CC[C@]12C` [LCA, lithocholic acid] here?
Its value is “confirm this described liability of ALT-elevation”.

Which MIC [7] does the source give for `C[C@H](CCC(=O)O)[C@H]1CC[C@H]2[C@@H]3CC[C@@H]4C[C@@H](O)CC[C@]4(C)[C@H]3C[C@H](O)[C@]12C` [iso-DCA, reference compound] here?
Its MIC is over 250 µM.
